Laboratory results as given in patent US7951548B2, “IL-13 production inhibitor” (Takeda Pharmaceutical Company Limited, priority 2005, dated 2011).

Assays:
Assay type in all cases: cell-based
[1] = test system: rat peritoneal mast cells; experiment: Expression of IL-13 in rat peritoneal mast cells (TaqMan PCR, GAPDH corrected)
Protocol: Rat peritoneal mast cells (hereinafter RPMC) were prepared as follows. Ice-chilled mast cell medium (hereinafter MCM; 150 mM NaCl, 3.7 mM KCl, 3.0 mM NaH2PO4, 3.5 mM KH2PO4, 5.6 mM (D)-Glucose, 0.1% bovine serum albumin (hereinafter BSA), 0.1% gelatin, 10 U/ml heparin, pH 6.8) was injected into the peritoneal cavity in about 40 ml/animal. After some massage of the rat abdominal region for about 2 minutes, the peritoneal cavity was opened along the median line to drain the ascitic fluid. The ascetic fluid prepared was filtered through a cell strainer (Becton Dickinson) and centrifuged at 50×g for 7 minutes. The cells precipitated were suspended in MCM and centrifuged again at 50×g for 7 minutes. After the precipitated cells were resuspended in MCM, the suspension was layered on 2 ml of 32% (w/v) BSA solution (dissolved in 0.9% NaCl), which was allowed to stand at room temperature for 20 minutes. After centrifugation was conducted at ×300 g for 15 minutes at room temperature, the cells in the interphase between MCM and BSA solution were discarded and the precipitated cells were suspended in MCM. The suspension was centrifuged at ×300 g for 5 minutes to wash the cells twice. The precipitated cells were suspended in assay buffer (RPMI 1640 medium (Invitrogen), 0.1% BSA) and the cells were provided for the following experiment. […] RPMC was activated as follows. RPMC was suspended in assay buffer and 10 μg/ml of monoclonal mouse antibody DNP-IgE (Yamasa) was added thereto. The mixture was allowed to stand for 30 minutes on ice for passive sensitization. After centrifugation at ×300 g for 5 minutes, the precipitated cells were washed 3 times with assay buffer. RPMC suspended in assay buffer was dispensed into a 96 well V-bottomed plate in 2×10^5/well. The assay was performed at n=3 under the respective reaction conditions. After a plate was kept warm at 37° C. for 5 minutes, lysoPS (Sigma) of 3 μM in a final concentration or DNP-BSA (Carbiochem) of 100 ng/ml in a final concentration was added depending on the assay conditions and the plate was allowed to stand at 37° C. in a 5% CO2 incubator. The plate was ice-cooled 2, 4, 6 and 8 hours after to terminate the activation of RPMC. Centrifugation was performed at ×300 g for 5 minutes and the total RNA was extracted from the cells precipitated using RNeasy Mini Kit (Qiagen) in accordance with the protocol attached. The obtained total RNA was concentrated and dissolved in RNase-free H2O in accordance with the protocol attached. Next, using 250 ng of the total RNA, reverse transcription was performed by the following procedure using SuperScript II ReverseTranscriptase (Invitrogen) to prepare single-stranded cDNA. After 0.5 μg of Oligo (dT) 12-18 primer (Invitrogen) and 1 μl of 10 mM dNTP (Invitrogen) were added to the total RNA solution and then RNase-free H2O was added to make the whole volume 12 μl, incubation was performed at 70° C. for 10 minutes followed by ice cooling for a minute. After adding 4 μl of 5× First-Strand Buffer (attached to SuperScript II ReverseTranscriptase), 2 μl of 0.1M DTT (attached to SuperScript II ReverseTranscriptase), 1 μl of RNaseOUT (Invitrogen) and 1 μl of SuperScript II ReverseTranscriptase, incubation was performed at 42° C. for 50 minutes and then at 70° C. for 15 minutes, followed by ice cooling for 5 minutes. The thus prepared cDNA was purified using Ethachinmate in accordance with the protocol attached and dissolved in Tris-EDTA Buffer (Fluka).
In TaqMan PCR below, rIL-13-tF (SEQ ID NO: 24) and rIL-13-tR (SEQ ID NO: 25) were used as primers and rIL-13-tP (SEQ ID NO: 26) as a probe for quantification of rat IL-13 (interleukin-13) and rIL-13 standard (SEQ ID NO: 27) was used as a standard. TaqMan Rodent GAPDH Control Reagents VIC Probe (Applied Biosystems) were used as primers and a probe for quantification of GAPDH, and rGAPDH standard (SEQ ID NO: 28) was used as a standard. […]

[2] = test system: human mast cell line LAD2 cells; experiment: Leukotriene production of human mast cell line LAD2 cells (Leukotriene EIA)
Protocol: The human mast cell line LAD2 cells obtained from National Institute of Health in US were subjected to passive sensitization overnight using DNP IgE (Yamasa, 1 μg/ml), washed and plated on a 96-well plate in a final cell concentration of 100,000 cells/well in the reaction solution. LAD2 cells were stimulated by lysoPS and DNP-BSA and the plate was centrifuged 20 minutes after. The leukotriene in the supernatant of the reaction solution was assayed using Leukotriene EIA Kit (Amersham).

[3] = test system: rat primary culture microglial cells (PMGC); experiment: Phosphorylation of ERK1/2 in PMGC; conditions: lysoPS
[4] = antigen (DNP-BSA 100 ng/ml)+lysoPS 3 μM, 4 hours after the stimulation
[5] = antigen+lysoPS 3 μM, 6 after the stimulation
[6] = antigen+lysoPS 3 μM, 8 hours after the stimulation

For lysophosphatidylserine [lysoPS], which “expression level of IL-13 after GAPDH correction, compared to stimulation by the antigen alone” value [1, 4] is on record?
The value was “about 36 times”.

And the “expression level of IL-13 after GAPDH correction, compared to the level without any stimulation” value [1, 4]?
The value was “about 27 times”.

What about the “expression level of IL-13, compared to stimulation by the antigen alone” value [1, 5] of the same substance?
Its value is “about 19 times”.

And the “expression level of IL-13, compared to the level without any stimulation” value [1, 5]?
Its value is “about 13 times”.

What about the “expression level of IL-13 after GAPDH correction, compared to stimulation by the antigen alone” value [1, 6] of the same substance?
The value was “about 27 times”.

What about the “expression level of IL-13 after GAPDH correction, compared to the level without any stimulation” value [1, 6] of the same substance?
The value was “about 13 times”.

What about the “expression level of IL-13 (in words)” value ([1]; stimulated by the antigen+lysoPS) of the same substance?
Its value is “marked increase in expression”.

And the leukotriene production ([2]; 300 ng/ml DNP-BSA with 0.1 μM lysoPS added simultaneously)?
Its leukotriene production is 382 pg/mL.

And the leukotriene production ([2]; 300 ng/ml DNP-BSA with 0.3 μM lysoPS added simultaneously)?
The leukotriene production was 529 pg/mL.

What about the leukotriene production ([2]; 300 ng/ml DNP-BSA with 1 μM lysoPS added simultaneously) of the same substance?
Its leukotriene production is 638 pg/mL.

And the leukotriene production ([2]; 300 ng/ml DNP-BSA with 3 μM lysoPS added simultaneously)?
Its leukotriene production is 750 pg/mL.

And the leukotriene production ([2]; 300 ng/ml DNP-BSA with 10 μM lysoPS added simultaneously)?
Its leukotriene production is 792 pg/mL.

What about the “phosphorylation of ERK1/2” value [3] of the same substance?
The value was “also noted in PMGC”.
